# Measured values reported in PubChem BioAssay (NCI).
# Where “and” joins values, the source holds several entries; their conditions need not be identical. Equal entries are not always repeated.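 Dose response: 5 concentrations. Exposure: 48 h. Format: 96-well plates. Endpoint: linear interpolation; highest concentration if not reached. GI50: concentration for 50% inhibition of growth. The concentration for full growth arrest is given as TGI.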
# Legend:
# Experiment in all cases: NCI anticancer screen, dose series, 48 h
# T-47D breast = system: T-47D breast
# DU-145 prostate = system: DU-145 prostate
# SK-MEL-5 melanoma = system: SK-MEL-5 melanoma
# HS 578T breast = system: HS 578T breast
# HCT-15 colon = system: HCT-15 colon
# OVCAR-3 ovarian = system: OVCAR-3 ovarian
# SK-MEL-2 melanoma = system: SK-MEL-2 melanoma
# CCRF-CEM leukemia = system: CCRF-CEM leukemia
# MDA-MB-231 breast = system: MDA-MB-231 breast
# SNB-19 CNS = system: SNB-19 CNS
SMILES,GI50 (T-47D breast) [µM],TGI (T-47D breast),GI50 (DU-145 prostate) [µM],TGI (DU-145 prostate),GI50 (SK-MEL-5 melanoma) [µM],TGI (SK-MEL-5 melanoma),GI50 (HS 578T breast) [µM],TGI (HS 578T breast),GI50 (HCT-15 colon) [µM],TGI (HCT-15 colon),GI50 (OVCAR-3 ovarian) [µM],TGI (OVCAR-3 ovarian),GI50 (SK-MEL-2 melanoma) [µM],TGI (SK-MEL-2 melanoma),GI50 (CCRF-CEM leukemia) [µM],TGI (CCRF-CEM leukemia),GI50 (MDA-MB-231 breast) [µM],TGI (MDA-MB-231 breast),GI50 (SNB-19 CNS) [µM],TGI (SNB-19 CNS)
O=C1NC(=O)N(S(=O)(=O)c2cc(C(=O)Nc3ccc(Cl)cc3)c(Cl)cc2S)S(=O)(=O)N1,6.65,55.7 µM,16.5,31.2 µM,13.1,28.5 µM,21.1,55.4 µM,18.9,36.5 µM,19.2,36.1 µM,27.7,66.1 µM,8.53,26.9 µM,25.2,74.5 µM,–,–
Oc1c(Br)cc(Cl)cc1C(c1cc(Cl)cc(Br)c1O)C(Cl)(Cl)Cl,2.84,11.1 µM,4.74,16.2 µM,1.64,3.83 µM,2.46,> 21.9 µM,1.39,9.06 µM,3.14,10.1 µM,2.31,5.08 µM,0.996,9.71 µM,1.97,5.98 µM,3.13,15.9 µM
CC1=C(C(=O)Nc2ccc3[nH]ncc3c2)C(c2ccc(F)cc2)N=C(c2ccc(C(F)(F)F)nc2)N1 (stereo not drawn),> 20,> 25 µM,> 25,> 25 µM,7.45,> 25 µM,5.05,20.2 µM,16.2,> 25 µM,9.07,> 25 µM,9.49,> 25 µM,17,> 25 µM,10.1,> 25 µM,> 23.6,> 25 µM
N=C(N)SCc1ccc(Cl)c2ccccc12 (tested in a mixture with another compound),–,18.3 µM and 21.7 µM,–,27.7 µM and 25.9 µM,–,25.6 µM and 21.6 µM,–,48.1 µM and 53 µM,–,32.8 µM and 36.8 µM,–,23.6 µM and 25 µM,–,21.7 µM and 25.1 µM,–,26.4 µM and 17.4 µM,–,21.9 µM and 27.8 µM,–,28.4 µM and 31.6 µM
COc1ccccc1CNCCCN1C(=O)c2ccc3c4c(ccc(c24)C1=O)C(=O)N(CCCNCc1ccccc1OC)C3=O,0.188,0.42 µM,0.163,0.309 µM,0.155,0.29 µM,0.59,2.13 µM,0.191,0.465 µM,0.085,0.218 µM,0.203,0.427 µM,0.194,2 µM,0.227,0.867 µM,0.159,0.347 µM
CC(=O)O[C@H]1C[C@@H]2[C@@]3(C)CC[C@H]4C[C@@]4(C)[C@@H]3CC[C@@]2(C)C2=CCC3=C(COC3=O)[C@]21C,20.7,54.7 µM,15.6,38.5 µM,17.7,34.5 µM,10.2,27.3 µM,21,56.1 µM,10.1,25.7 µM,36.3,> 100 µM,33.6,> 100 µM,15.8,35.9 µM,24.3,69.7 µM
CC[C@]12C=CCN3CC[C@@]4(c5ccc(OC)cc5N(C)[C@H]4[C@@](O)(C(=O)OC)[C@@H]1OC(=O)CCCN1CCN(CCCC(=O)O[C@@H]4[C@]5(CC)C=CCN6CC[C@@]7(c8ccc(OC)cc8N(C)[C@H]7[C@@]4(O)C(=O)OC)[C@@H]65)CC1)[C@@H]32,1.6,3.44 µM,0.701,1.99 µM,1.48,2.83 µM,1.39,3.38 µM,1.2,2.61 µM,1.38,2.82 µM,1.88,3.59 µM,1.23,3.03 µM,0.665,2.02 µM,1.23,2.59 µM
O=C(O)CSc1cc(NS(=O)(=O)c2ccc(Br)cc2)c2ccccc2c1O,4.84,23.1 µM,16.5,30.1 µM,14.7,27.9 µM,7.65,80.1 µM,13.3,30.7 µM,2.58,9.09 µM,9.92,28.6 µM,4.37,> 44.8 µM,2.72,8.08 µM,17.1,34.2 µM
FC(F)(F)c1cccc(CNC2CCN(CCc3ccccc3)CC2)c1,20,52.9 µM,46.3,> 100 µM,12.3,24.7 µM,17.7,57.5 µM,23.3,> 100 µM,32.6,> 100 µM,23.5,47.2 µM,27,75.8 µM,12.6,35.2 µM,30.8,> 100 µM
COc1cc2c3c(n(CCCN)c(=O)c2cc1OC)-c1ccc(N)cc1C3=O,0.842,7.37 µM,1.64,9.03 µM,0.902,2.88 µM,2.02,12.5 µM,24.4,> 100 µM,2.12,> 29.6 µM,7.77,29.8 µM,0.389,7.28 µM,3.09,21.2 µM,1.27,16.3 µM
O=C1[C@H](Cc2ccc(O)cc2)N2C(=O)CCN(C(=O)NCc3ccccc3)[C@H]2CN1Cc1cccc2ccccc12,2.34,15.4 µM,4.55,46.5 µM,2.28,11.4 µM,0.851,7.24 µM,15.5,> 89.8 µM,1.71,8.91 µM,2.64,9.18 µM,2.19,> 53.1 µM,0.605,3.6 µM,0.868,> 100 µM
CNCc1cccc2c1OCCOCCOCCNS(=O)(=O)c1ccc(cc1)-c1cnc(N)c(n1)C(=O)N2,2.05,5.46 µM,1.24,3.36 µM,1.69,3.29 µM,0.477,3.05 µM,4.86,18.9 µM,1.12,2.61 µM,1.76,4.41 µM,0.532,8.57 µM,1.38,3.61 µM,2.45,9.9 µM
